In ChEMBL document CHEMBL1201862, “PubChem BioAssay data set” (2004):
Active and inactive are the calls of the source.

Key:
[1] = target: Palmitoyl-protein thioesterase ABHD10, mitochondrial (Mus musculus, UniProt Q6PE15); test: Late stage assay provider results from the probe development effort to identify inhibitors of PME-1: fluorescence-based dose response biochemical gel-based competitive Activity-Based Protein Profiling (ABPP) inhibition of ABHD10 Set 1.; format: functional
[2] = target: Melanocortin receptor 4 (Homo sapiens, UniProt P32245); format: functional, cell-based;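 also: Cell-based assay with luminescence read-out, confirmatory dose-response testing for agonist activity of biased ligands at MC4R; human U2OS cells with tagged receptor and beta-arrestin; potency of agonists that increase receptor coupling to beta-arrestin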
[3] = target: Nuclear receptor subfamily 5 group A member 2 (Homo sapiens, UniProt O00482); format: functional, cell-based;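 also: HEK293T cells transfected with LRH-1 and a StAR promoter luciferase reporter; potency for inhibitors that lower LRH-1 driven reporter light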
[4] = target: Steroidogenic factor 1 (Homo sapiens, UniProt Q13285); test: Counterscreen for inverse agonists of the liver receptor homolog-1 (LRH-1; NR5A2): Luminescence-based cell-based high throughput dose response assay to identify inverse agonists of the Steroidogenic Factor 1 Nuclear Receptor (SF1; NR5A1).; format: functional
[5] = nonselective StAR promoter luciferase inhibitors – cell-based, luminescence, luciferase reporter, counter-screen for LRH-1 inverse agonist project, dose response (AID 651969); format: functional
[6] = target: DNA repair and recombination protein RAD54-like (Homo sapiens, UniProt Q92698); test: RAD54 Holliday junction migration blockers – biochemical, fluorescence, cherry-picked samples, dose series, confirmation (AID 651657); format: functional
[7] = target: T1, DNA repair protein RAD52 homolog (Homo sapiens, UniProt P43351); format: functional, biochemical
T1 sequence (P43351 whole entry): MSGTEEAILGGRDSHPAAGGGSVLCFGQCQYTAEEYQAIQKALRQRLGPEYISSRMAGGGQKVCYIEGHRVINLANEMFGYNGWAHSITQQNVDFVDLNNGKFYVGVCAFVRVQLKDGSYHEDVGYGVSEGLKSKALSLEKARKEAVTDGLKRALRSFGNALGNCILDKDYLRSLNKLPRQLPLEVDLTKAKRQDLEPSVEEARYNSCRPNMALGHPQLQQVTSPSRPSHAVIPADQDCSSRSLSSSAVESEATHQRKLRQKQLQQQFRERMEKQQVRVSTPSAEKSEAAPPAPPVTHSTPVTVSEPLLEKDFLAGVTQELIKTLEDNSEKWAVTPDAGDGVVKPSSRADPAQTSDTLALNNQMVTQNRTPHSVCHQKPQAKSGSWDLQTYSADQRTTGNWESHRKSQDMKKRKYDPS

[8] = target: Beta-lactamase (Salmonella choleraesuis (strain SC-B67), UniProt Q5J463); test: Epi-absorbance-based counterscreen for selective VIM-2 inhibitors: dose response biochemical high throughput screening assay to identify inhibitors of TEM-1 serine-beta-lactamase.
[9] = target: T2, Beta-lactamase (Pseudomonas aeruginosa, UniProt Q79MP6); test: inhibition of IMP-1 beta-lactamase activity – biochemical, epi-absorbance, selectivity assay for VIM-2 inhibitor project, dose response (AID 1920)
[10] = target: T2, Beta-lactamase; test: […] counterscreen for selective VIM-2 inhibitors: dose response biochemical high throughput screening assay to identify inhibitors of IMP-1 metallo-beta-lactamase.
[11] = target: Galanin receptor type 3 (Homo sapiens, UniProt O60755); test: Fluorescence-based cell-based primary high throughput dose response assay to identify antagonists of the Galanin Receptor 3 (GalR3).; format: functional
[12] = cells; format: functional, cell-based; conditions: HEK-CNG
[13] = target: T3, ATP-dependent translocase ABCB1 (Homo sapiens, UniProt P08183); test: inhibition of BCRP-mediated JC-1 efflux – Ig-MXP3 cells, flow cytometry, set 2, dose response (AID 504566); format: functional; conditions: read-out: EC50_MICROM_;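 also: flow cytometry median green fluorescence of retained JC-1 dye; potency of efflux pump inhibition measured as rising substrate retention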
[14] = target: T3, ATP-dependent translocase ABCB1; test: P-gp JC-1 efflux blockade concentration-response – Jurkat-DNR cells, flow cytometry, set 2, dose response (AID 504569); format: functional; conditions: read-out: EC50_MICROM_;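 also: potency of pump inhibitors that raise cellular JC-1 green fluorescence up to the nicardipine level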
[15] = target: T4, Eukaryotic translation initiation factor 2-alpha kinase 3 (Homo sapiens, UniProt Q9NZJ5); test: Dose response cell-based high-throughput screening assay to measure PERK inhibition. [Related pubchem assays: 1416 ]; format: functional
T4 sequence (Q9NZJ5 whole entry): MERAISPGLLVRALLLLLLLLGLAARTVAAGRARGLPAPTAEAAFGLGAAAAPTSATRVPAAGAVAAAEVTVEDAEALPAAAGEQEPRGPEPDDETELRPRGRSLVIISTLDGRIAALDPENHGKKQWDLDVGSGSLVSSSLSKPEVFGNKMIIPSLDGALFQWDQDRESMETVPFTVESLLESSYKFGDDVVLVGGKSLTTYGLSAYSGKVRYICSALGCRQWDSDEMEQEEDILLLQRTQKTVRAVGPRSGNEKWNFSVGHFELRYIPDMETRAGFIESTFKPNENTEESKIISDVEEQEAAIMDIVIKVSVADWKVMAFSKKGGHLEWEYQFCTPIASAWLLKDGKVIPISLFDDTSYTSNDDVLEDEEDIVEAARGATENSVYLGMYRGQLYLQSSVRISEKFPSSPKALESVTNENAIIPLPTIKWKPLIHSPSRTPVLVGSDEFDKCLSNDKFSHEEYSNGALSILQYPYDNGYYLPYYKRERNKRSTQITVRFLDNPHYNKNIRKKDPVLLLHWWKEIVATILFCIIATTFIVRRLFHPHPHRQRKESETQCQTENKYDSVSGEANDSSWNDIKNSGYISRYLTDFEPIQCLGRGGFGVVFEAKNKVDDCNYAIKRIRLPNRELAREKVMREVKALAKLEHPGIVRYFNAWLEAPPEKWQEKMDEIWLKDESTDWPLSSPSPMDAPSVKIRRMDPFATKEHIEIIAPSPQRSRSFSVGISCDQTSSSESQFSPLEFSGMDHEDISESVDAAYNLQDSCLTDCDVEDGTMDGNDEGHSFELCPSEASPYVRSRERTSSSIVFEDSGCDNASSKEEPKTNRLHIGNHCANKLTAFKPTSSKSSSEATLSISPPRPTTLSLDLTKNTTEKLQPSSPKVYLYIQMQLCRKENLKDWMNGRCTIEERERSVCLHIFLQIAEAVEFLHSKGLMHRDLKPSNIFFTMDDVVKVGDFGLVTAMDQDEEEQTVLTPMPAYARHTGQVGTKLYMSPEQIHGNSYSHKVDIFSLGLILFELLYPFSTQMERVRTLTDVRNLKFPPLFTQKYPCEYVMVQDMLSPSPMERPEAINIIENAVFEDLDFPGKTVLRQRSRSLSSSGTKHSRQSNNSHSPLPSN

[16] = target: T4, Eukaryotic translation initiation factor 2-alpha kinase 3; test: Counterscreen assay for PERK inhibitors: Dose response cell-based high throughput screening assay to measure inhibition of PERK at 6 hours. [Related pubchem assays: 1522, 1416 ]; format: functional
[17] = tested on: INS1; test: INS-1E survival protection against cytokine death – cell-based, luminescence, retest, dose response (AID 449756); format: functional; conditions: Rattus norvegicus;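 also: cell death triggered by IL-1 beta plus TNF-alpha plus IFN-gamma mixture; protective hits raise ATP signal compared with cytokine alone wells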
[18] = target: Photoreceptor-specific nuclear receptor (Homo sapiens, UniProt Q9Y5X4); format: functional, cell-based;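 also: CHO-S cells with Gal4-NCOR and VP16-NR2E3 two-hybrid luciferase reporter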
[19] = target: T5, Sentrin-specific protease 1 (Homo sapiens, UniProt Q9P0U3); test: SENP1 catalytic domain blockers, concentration series – biochemical, kinetic FRET, dose response (AID 651697); format: functional; conditions: read-out: IC50_Mean
[20] = target: T5, Sentrin-specific protease 1; test: Dose response confirmation of small molecule inhibitors of the catalytic domain of the SUMO protease, SENP1 in a FRET assay.; format: functional; conditions: read-out: IC50_Mean

T5 sequence (Q9P0U3 whole entry, the tested form may be a part): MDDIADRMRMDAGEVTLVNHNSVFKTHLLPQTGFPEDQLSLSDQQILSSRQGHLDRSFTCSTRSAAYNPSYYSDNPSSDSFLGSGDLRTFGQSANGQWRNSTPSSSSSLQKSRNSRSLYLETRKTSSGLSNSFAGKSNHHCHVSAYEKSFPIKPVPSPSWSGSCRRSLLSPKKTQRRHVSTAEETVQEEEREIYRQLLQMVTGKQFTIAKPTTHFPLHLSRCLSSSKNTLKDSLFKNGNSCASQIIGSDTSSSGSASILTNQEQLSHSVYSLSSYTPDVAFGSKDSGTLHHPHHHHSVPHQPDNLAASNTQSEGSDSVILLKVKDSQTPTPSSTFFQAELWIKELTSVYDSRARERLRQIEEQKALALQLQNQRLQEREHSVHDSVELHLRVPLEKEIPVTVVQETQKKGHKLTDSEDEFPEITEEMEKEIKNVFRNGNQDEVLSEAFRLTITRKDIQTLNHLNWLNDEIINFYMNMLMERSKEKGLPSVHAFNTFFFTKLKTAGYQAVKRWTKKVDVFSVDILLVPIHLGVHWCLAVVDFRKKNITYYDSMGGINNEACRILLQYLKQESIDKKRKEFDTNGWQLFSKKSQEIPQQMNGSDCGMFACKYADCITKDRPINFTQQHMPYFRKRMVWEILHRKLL
T3 sequence (P08183 whole entry): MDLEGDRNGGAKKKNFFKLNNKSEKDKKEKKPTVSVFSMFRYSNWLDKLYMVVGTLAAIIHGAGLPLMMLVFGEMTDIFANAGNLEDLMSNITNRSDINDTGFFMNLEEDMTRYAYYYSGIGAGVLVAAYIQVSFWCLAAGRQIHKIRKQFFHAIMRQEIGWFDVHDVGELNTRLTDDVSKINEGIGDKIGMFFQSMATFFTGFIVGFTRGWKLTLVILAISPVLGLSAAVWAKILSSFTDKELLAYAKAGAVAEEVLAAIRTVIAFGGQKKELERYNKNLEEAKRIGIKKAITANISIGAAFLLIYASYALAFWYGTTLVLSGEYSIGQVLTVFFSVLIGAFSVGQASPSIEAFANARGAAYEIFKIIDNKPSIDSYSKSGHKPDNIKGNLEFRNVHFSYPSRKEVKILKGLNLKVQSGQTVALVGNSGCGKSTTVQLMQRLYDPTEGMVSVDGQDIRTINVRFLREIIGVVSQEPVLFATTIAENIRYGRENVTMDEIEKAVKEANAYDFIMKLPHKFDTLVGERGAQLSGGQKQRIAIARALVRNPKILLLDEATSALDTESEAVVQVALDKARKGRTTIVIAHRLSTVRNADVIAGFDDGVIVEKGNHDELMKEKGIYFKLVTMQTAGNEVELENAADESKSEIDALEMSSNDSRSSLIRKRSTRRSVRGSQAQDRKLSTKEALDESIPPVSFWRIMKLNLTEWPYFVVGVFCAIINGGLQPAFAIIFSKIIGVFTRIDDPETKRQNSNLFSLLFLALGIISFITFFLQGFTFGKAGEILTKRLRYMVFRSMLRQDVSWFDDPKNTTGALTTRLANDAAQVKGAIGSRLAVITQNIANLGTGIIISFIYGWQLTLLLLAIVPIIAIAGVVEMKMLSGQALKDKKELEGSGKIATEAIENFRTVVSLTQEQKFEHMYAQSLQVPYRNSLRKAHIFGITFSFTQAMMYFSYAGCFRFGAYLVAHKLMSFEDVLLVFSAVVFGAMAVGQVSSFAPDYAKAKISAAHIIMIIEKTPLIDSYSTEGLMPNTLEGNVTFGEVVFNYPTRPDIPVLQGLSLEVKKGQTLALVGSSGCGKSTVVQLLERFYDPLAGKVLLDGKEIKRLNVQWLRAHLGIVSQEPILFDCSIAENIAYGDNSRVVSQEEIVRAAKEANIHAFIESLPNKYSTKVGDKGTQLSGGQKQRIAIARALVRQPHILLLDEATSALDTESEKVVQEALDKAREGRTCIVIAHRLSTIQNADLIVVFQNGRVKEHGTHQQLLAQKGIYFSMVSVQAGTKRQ
T2 sequence (Q79MP6 whole entry): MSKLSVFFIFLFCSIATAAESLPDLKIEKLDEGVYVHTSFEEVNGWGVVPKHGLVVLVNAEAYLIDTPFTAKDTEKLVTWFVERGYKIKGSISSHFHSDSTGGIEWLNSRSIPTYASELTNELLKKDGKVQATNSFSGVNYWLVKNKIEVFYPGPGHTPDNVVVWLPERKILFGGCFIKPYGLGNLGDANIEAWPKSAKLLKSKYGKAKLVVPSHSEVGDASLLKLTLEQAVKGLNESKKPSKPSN
Photoreceptor-specific nuclear receptor, sequence (Q9Y5X4 whole entry, the tested form may be a part): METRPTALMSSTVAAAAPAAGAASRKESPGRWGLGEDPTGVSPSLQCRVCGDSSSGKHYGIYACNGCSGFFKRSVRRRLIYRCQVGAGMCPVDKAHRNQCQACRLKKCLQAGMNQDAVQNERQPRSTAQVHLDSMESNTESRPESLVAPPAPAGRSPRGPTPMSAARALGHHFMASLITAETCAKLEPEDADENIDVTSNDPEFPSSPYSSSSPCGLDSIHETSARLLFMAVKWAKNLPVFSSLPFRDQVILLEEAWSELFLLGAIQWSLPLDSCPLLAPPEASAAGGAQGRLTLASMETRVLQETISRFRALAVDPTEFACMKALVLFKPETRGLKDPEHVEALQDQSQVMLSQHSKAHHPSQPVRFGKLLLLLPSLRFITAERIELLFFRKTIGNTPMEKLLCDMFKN
Beta-lactamase (Salmonella choleraesuis (strain SC-B67), UniProt Q5J463), sequence (Q5J463 whole entry): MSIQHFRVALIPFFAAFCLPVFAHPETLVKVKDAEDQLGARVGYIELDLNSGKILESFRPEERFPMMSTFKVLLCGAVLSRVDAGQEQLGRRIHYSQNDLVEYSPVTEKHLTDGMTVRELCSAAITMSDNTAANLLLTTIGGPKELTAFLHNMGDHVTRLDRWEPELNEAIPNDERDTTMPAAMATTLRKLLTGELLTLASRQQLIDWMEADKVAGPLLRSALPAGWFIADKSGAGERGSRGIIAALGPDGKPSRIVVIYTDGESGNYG
Palmitoyl-protein thioesterase ABHD10, mitochondrial, sequence (Q6PE15 whole entry): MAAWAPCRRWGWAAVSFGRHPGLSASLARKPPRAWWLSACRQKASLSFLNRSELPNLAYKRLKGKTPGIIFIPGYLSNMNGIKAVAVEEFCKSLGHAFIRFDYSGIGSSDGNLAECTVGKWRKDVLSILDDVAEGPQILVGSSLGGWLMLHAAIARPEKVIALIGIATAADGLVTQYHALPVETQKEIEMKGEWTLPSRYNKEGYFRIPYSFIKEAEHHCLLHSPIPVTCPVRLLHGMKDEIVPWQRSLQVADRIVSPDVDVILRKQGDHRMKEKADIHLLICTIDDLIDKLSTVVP
Melanocortin receptor 4, sequence (P32245 whole entry): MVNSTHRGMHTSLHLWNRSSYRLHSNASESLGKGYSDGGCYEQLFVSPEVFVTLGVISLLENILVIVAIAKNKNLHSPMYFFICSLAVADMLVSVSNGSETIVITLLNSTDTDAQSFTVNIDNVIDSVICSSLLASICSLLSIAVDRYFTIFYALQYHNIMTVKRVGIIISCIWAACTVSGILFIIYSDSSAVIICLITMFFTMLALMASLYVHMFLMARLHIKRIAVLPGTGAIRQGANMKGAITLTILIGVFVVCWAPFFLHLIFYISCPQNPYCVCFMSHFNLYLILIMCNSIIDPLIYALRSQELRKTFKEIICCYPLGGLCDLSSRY
Galanin receptor type 3, sequence (O60755 whole entry): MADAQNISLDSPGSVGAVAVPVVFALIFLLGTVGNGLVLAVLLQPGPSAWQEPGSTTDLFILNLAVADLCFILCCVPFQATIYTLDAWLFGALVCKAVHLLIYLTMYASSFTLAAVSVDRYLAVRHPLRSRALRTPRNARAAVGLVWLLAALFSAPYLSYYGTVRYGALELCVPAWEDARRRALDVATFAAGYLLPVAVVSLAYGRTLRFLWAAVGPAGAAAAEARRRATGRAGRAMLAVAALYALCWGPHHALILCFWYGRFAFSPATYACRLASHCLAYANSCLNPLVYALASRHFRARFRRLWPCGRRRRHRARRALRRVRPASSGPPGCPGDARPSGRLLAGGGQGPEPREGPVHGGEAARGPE
Nuclear receptor subfamily 5 group A member 2, sequence (O00482 whole entry): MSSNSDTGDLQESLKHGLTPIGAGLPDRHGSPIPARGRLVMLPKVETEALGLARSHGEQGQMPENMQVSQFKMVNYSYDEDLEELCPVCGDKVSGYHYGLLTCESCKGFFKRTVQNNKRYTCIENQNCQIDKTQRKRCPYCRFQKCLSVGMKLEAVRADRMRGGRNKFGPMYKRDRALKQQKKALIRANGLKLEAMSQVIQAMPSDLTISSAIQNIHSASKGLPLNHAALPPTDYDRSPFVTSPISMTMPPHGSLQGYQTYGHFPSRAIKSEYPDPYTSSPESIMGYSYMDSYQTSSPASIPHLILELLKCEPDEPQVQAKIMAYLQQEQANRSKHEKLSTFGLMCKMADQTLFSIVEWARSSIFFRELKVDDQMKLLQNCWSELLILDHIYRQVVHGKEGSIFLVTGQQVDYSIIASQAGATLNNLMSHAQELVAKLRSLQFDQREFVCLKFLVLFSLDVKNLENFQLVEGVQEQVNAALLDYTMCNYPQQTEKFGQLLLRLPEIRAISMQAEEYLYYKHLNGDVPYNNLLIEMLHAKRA
Steroidogenic factor 1, sequence (Q13285 whole entry): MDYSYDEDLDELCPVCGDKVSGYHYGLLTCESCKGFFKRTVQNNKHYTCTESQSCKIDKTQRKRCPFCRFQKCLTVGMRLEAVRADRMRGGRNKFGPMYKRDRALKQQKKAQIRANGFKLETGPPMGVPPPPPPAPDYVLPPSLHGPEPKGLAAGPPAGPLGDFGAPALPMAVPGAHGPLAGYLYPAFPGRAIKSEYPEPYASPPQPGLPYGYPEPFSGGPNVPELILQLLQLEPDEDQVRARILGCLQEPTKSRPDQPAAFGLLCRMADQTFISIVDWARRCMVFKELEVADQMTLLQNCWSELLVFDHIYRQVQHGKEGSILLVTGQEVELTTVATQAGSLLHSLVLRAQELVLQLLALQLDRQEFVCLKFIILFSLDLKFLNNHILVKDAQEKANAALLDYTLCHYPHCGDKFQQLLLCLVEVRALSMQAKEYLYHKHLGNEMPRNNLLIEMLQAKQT

CC[C@@]1(c2ccc(Cl)cc2)C(=O)N(C(=O)OC)N1C(=O)OC
IC50 [1]: 0.103 µM (active)

CC(C)CC(N)c1csc(Nc2ccc(C(F)(F)F)cn2)n1 (stereo not given)
EC50 [2]: > 89.2 µM (inactive)

COc1ccc(NC(=O)CSc2nnc3ccc(-c4cccnc4)nn23)cc1OC
IC50 [3]: 35.9 µM (inactive) | IC50 [4]: 35.9 µM (inactive) | IC50 [5]: 35.9 µM (inactive)

CN(C)CCNC(=O)c1cccc(-c2cnc3c(NC=O)cc(-c4cccc(F)c4)cn23)c1
AC50 [6]: 22.4 µM (active) | AC50 [7]: 5.99 µM (active)

O=Cc1c(O)nc2ccccc2c1NCc1ccc(Cl)cc1
IC50 [8]: > 59.6 µM (inactive) | IC50 [9]: > 59.6 µM (inactive) | IC50 [10]: > 59.6 µM (inactive)

CCNCC(O)c1cccc(O)c1 (stereo not given) [ETILEFRINE]
IC50 [11]: 1.33 µM (active) | EC50 [12]: > 30 µM (inactive)

Cc1ccc(-c2cc3nc(-c4ccccc4)cc(N4CCN(C(=O)c5ccoc5)CC4)n3n2)cc1
EC50 [13]: 0.81 µM (active) | EC50 [14]: 0.66 µM (active)

CCC1(OC(=O)CN)C(=O)OCc2c1cc1n(c2=O)Cc2cc3ccccc3nc2-1 (stereo not given)
EC50 [15]: > 55.7 µM (not active) | EC50 [16]: > 55.7 µM (not active) | AC50 [17]: 2.25 µM (active) | IC50 [18]: 1.23 µM (active)

N#C/C(=C\c1cc2ccccc2nc1N1CCCCC1)C(N)=O
IC50 [19]: 53.2 µM (inactive) | IC50 [20]: 25.8 µM (inactive)
